According to PubChem BioAssay (NCI):
Values joined by “and” are separate entries in the source; they are usually repeats but may differ in a detail not shown here. Equal values may be shown once.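 These data come from cells grown in 96-well plates and exposed to compound for 48 hours at five concentrations. GI50 marks 50% less growth. TGI denotes the concentration required for complete inhibition of growth.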

Columns and labels:
Assay in all cases: DTP human tumour cell line panel, 48 h
786-0 renal = test system: 786-0 renal
HCC-2998 colon = test system: HCC-2998 colon
HCT-116 colon = test system: HCT-116 colon
HT29 colon = test system: HT29 colon
LOX IMVI melanoma = test system: LOX IMVI melanoma
MALME-3M melanoma = test system: MALME-3M melanoma
NCI-H460 lung = test system: NCI-H460 lung
SF-268 CNS = test system: SF-268 CNS
UACC-62 melanoma = test system: UACC-62 melanoma
UO-31 renal = test system: UO-31 renal

Structure (SMILES) | GI50 (786-0 renal) [µM] | TGI (786-0 renal) | GI50 (HCC-2998 colon) [µM] | TGI (HCC-2998 colon) | GI50 (HCT-116 colon) [µM] | TGI (HCT-116 colon) | GI50 (HT29 colon) [µM] | TGI (HT29 colon) | GI50 (LOX IMVI melanoma) [µM] | TGI (LOX IMVI melanoma) | GI50 (MALME-3M melanoma) [µM] | TGI (MALME-3M melanoma) | GI50 (NCI-H460 lung) [µM] | TGI (NCI-H460 lung) | GI50 (SF-268 CNS) [µM] | TGI (SF-268 CNS) | GI50 (UACC-62 melanoma) [µM] | TGI (UACC-62 melanoma) | GI50 (UO-31 renal) [µM] | TGI (UO-31 renal)
CC1CCc2nc[nH]c(=O)c21 (stereo unspecified) | > 100 | > 100 µM | > 100 | > 100 µM | > 100 | > 100 µM | > 100 | > 100 µM | > 100 | > 100 µM | > 100 | > 100 µM | > 100 | > 100 µM | > 100 | > 100 µM | > 100 | > 100 µM | > 100 | > 100 µM
COc1cccc(C2c3cc4c(cc3OC(C)(N3CCCC3)C2C)OCO4)c1O (stereo unspecified) | – | > 56 µM | – | 25.6 µM | – | 47.9 µM | – | 12.2 µM | – | 19.2 µM | – | 42.3 µM | – | 37 µM | – | > 72.5 µM | – | 46.8 µM | – | 56.4 µM
CN(C)N=Nc1ccc(C(N)=O)cc1 | – | > 100 µM | – | > 100 µM | – | > 100 µM | – | > 100 µM | – | > 100 µM | – | > 100 µM | – | > 100 µM | – | > 100 µM | – | > 100 µM | – | > 100 µM
Cc1ccc(CN2CCC(C(=O)Nc3ccc(-c4cc5ccccc5[nH]4)cc3)CC2)o1 | 98.9 | > 100 µM | > 100 | > 100 µM | > 100 | > 100 µM | 94.2 | > 100 µM | > 100 | > 100 µM | > 100 | > 100 µM | > 100 | > 100 µM | > 100 | > 100 µM | 45.5 | > 100 µM | > 100 | > 100 µM
CN(C)C(=S)N=C(Nc1ccccc1)Nc1ccccc1 | – | > 100 µM | – | > 100 µM | – | > 100 µM | – | > 100 µM | – | > 100 µM | – | > 100 µM | – | > 100 µM | – | > 100 µM | – | > 100 µM | – | > 100 µM
COC(=O)/C=C1\S/C(=N\NC(=O)c2cc3ccc2/C=C\c2ccc(cc2)/C=C\3)N(c2ccccc2)C1=O | 2 | 4.38 µM | 1.78 | 3.45 µM | 1.79 | 3.67 µM | 1.93 | 4.07 µM | 1.69 | 3.37 µM | 3.27 | 21.4 µM | 2.08 | 4.29 µM | 3.09 | 11.2 µM | 1.96 | 4.21 µM | 1.53 | 3.08 µM
Cn1cc(C2=C(c3c4n(c5ccccc35)CCCCC4)C(=O)NC2=O)c2ccccc21 | 7.76 | > 25 µM | 12.4 | > 25 µM | 4.21 | > 25 µM | 2.57 | > 25 µM | 9.4 | > 25 µM | > 11.5 | > 25 µM | 6.51 | > 25 µM | 4.9 | > 25 µM | 1.27 | > 25 µM | 5.75 | > 25 µM
C=C(C)C(OC)C(O)CC1(C)CC(O)CC(C)(C2CCC3OC(C4(C)CCC(Br)C(C)(C)O4)CCC3(C)O2)O1 (stereo unspecified) | 17.8 | 33.6 µM | 14.8 | 30.1 µM | 20.6 | 51.7 µM | 30.3 | > 78.9 µM | 26.1 | > 58.9 µM | 14.9 | 32.5 µM | 17.7 | 39.3 µM | 18.9 | 40.3 µM | 19 | 39.5 µM | 15.7 | 34.4 µM
COc1cc2cc(OC)c3cc4c(cc3c2c(OC)c1OC)OCO4 | – | > 90.4 µM | – | 25.8 µM | – | > 84.4 µM | – | 30.7 µM | – | 31 µM | – | > 100 µM | – | 52 µM | – | > 100 µM | – | > 64.4 µM | – | > 67.8 µM
CCN(CC)CCSc1c2ccccc2nc2cc(NCC(=O)Nc3ccccc3-c3ccccc3NC(=O)CNc3ccc4c(SCCN(CC)CC)c5ccccc5nc4c3)ccc12 | – | > 100 µM | – | > 100 µM | – | > 100 µM | – | > 100 µM | – | > 100 µM | – | > 100 µM | – | > 100 µM | – | > 100 µM | – | > 100 µM | – | > 100 µM
O=C1/C(=C/c2ccc(O)c(O)c2)CCC/C1=C\c1ccc(O)c(O)c1 | – | 15.5 µM | – | 11.5 µM | – | 7.17 µM | – | 21.2 µM | – | 7.68 µM | – | 7.05 µM | – | 20.1 µM | – | 14.7 µM | – | 30.2 µM | – | 4.34 µM
O=C(O)CCC(NC(=O)c1ccc(Nc2nc3ccccc3nc2-c2cccs2)cc1)C(=O)O (stereo unspecified) | – | > 100 µM | – | > 100 µM | – | > 100 µM | – | > 100 µM | – | > 100 µM | – | > 100 µM | – | > 100 µM | – | > 100 µM | – | > 100 µM | – | > 100 µM
COc1cc2c(cc1OCCCCN1CCN(CC(=O)Nc3ccc(Cl)cc3C(=O)c3ccccc3Cl)CC1)N=CC1CCCN1C2=O (stereo unspecified) | 0.205 | 0.456 µM | 0.194 | 0.343 µM | 0.225 | 0.664 µM | 0.25 | 1.04 µM | 0.203 | 0.442 µM | 0.186 | 0.346 µM | 0.228 | 0.517 µM | 0.268 | 0.711 µM | 0.186 | 0.355 µM | 0.267 | 0.817 µM
CC(=O)[CH-]C(=O)c1ccccc1.CC(=O)[CH-]C(=O)c1ccccc1.CN(C)c1ccc([O-])cc1.CN(C)c1ccc([O-])cc1.Cl.[Ti+4] | 22.8 | > 31.6 µM | 20.7 | > 31.6 µM | 18.1 | > 31.6 µM | 18.1 | > 31.6 µM | 26 | > 100 µM | 14.8 | 26.4 µM | 15.1 | > 31.6 µM | > 31.6 | > 31.6 µM | > 31.6 | > 31.6 µM | 17.9 | > 31.6 µM
CCN1/C(=C\c2cc[n+](CC)c3ccccc23)C=Cc2ccccc21 | 0.465 | 12 µM | 0.141 | 2.61 µM | 0.124 | 10.3 µM | 0.202 | 10.8 µM | 0.179 | 1.52 µM | 0.138 | 0.857 µM | 0.193 | 1.09 µM | 0.291 | 13.2 µM | 0.179 | 1.27 µM | 1.89 | 8.1 µM
O=C(Nc1nc2ccc([N+](=O)[O-])cc2s1)C(=O)C(C1OC(=O)c2ccccc21)[N+](=O)[O-] (stereo unspecified) | – | > 100 µM | – | > 100 µM | – | > 100 µM | – | > 100 µM | – | > 100 µM | – | > 100 µM | – | > 100 µM | – | > 100 µM | – | > 100 µM | – | 94.4 µM
O=C(Nc1ccc(F)cc1)Nc1ccc(Cl)c([N+](=O)[O-])c1 | 3.37 | 13.2 µM | 3.71 | 14.3 µM | 3.07 | 11.8 µM | 3.2 | 12.4 µM | 3.51 | 12.2 µM | 2.37 | 7.2 µM | 2.72 | 11.5 µM | 4.42 | 17.3 µM | 3.04 | 13.2 µM | 2.69 | 10.6 µM
COc1cccc(-c2cc(-c3cccc(NS(C)(=O)=O)c3)nc(N)c2C#N)c1O | 0.375 | > 100 µM | 0.328 | > 27.1 µM | 0.0783 | > 100 µM | 0.0924 | – | 0.136 | > 100 µM | 0.0465 | 93.4 µM | 0.316 | > 39.5 µM | 0.587 | > 100 µM | 0.064 | > 100 µM | 0.208 | > 52.7 µM
C=CCO[C@H]1CO[C@H]2[C@@H]1OC[C@@H]2Oc1ccc(Nc2ccnc(Nc3ccc(O[C@H]4CO[C@H]5[C@@H]4OC[C@@H]5OCC=C)c(Cl)c3)n2)cc1Cl | 1.87 | 3.37 µM | 1.94 | 3.43 µM | 1.82 | 3.44 µM | 2.08 | 4.99 µM | 1.76 | 3.31 µM | 1.54 | 2.91 µM | 1.76 | 3.35 µM | 1.98 | 3.76 µM | 1.81 | 3.32 µM | 1.58 | 2.93 µM
Nc1ccccc1C#C/C=C\C#Cc1ccccc1OC(F)(F)F | 5.48 | 21 µM | 2.93 | 14.7 µM | 4.45 | 16.7 µM | 3.62 | 28.7 µM | 7.85 | 27 µM | 11.4 | 38.1 µM | 3.78 | 17.3 µM | 6.44 | 32 µM | 5.94 | 21 µM | 4.63 | 22.8 µM
CCCCCCCCCCCCCC(=O)OC(/C=C/C(C)C)C(O)C(O)C(OC)C(=O)NC1CCCCN(C)C1=O (stereo unspecified) | – | 5.94 µM and > 49 µM | – | 5.54 µM and > 49 µM | > 49 | 5.46 µM and > 49 µM | – | 7.01 µM and > 49 µM | – | 6.53 µM and > 49 µM | – | 7.93 µM and > 49 µM | – | 5.79 µM and > 49 µM | – | 8.63 µM and > 49 µM | – | 6.15 µM and > 49 µM | > 49 | 5.25 µM and > 49 µM
C=CCOc1ccc2c(C)cc(=O)oc2c1C | – | > 100 µM | – | > 100 µM | – | > 100 µM | – | > 100 µM | – | > 100 µM | – | > 100 µM | – | > 100 µM | – | > 100 µM | – | > 100 µM | – | > 100 µM
